# Measurements from US10954269B2, “Anti-inflammatory tripeptides” (Dr. August Wolff Gmbh & Co. KG Arzneimittel, priority 2013, dated 2021).
# Legend:
# [1] = test system: human keratinocyte cell line (HaCaT); assay: Cytokine secretion on protein level in activated human keratinocyte cell line HaCaT (13-plex FACS / Luminex, supernatant); assay type: cell-based; details: for IL-1 cytokine concentration / IL-2 cytokine concentration / IL-4 cytokine concentration / IL-5 cytokine concentration / IL-6 cytokine concentration / IL-9 cytokine concentration / IL-10 cytokine concentration / IL-13 cytokine concentration / IL-17 cytokine concentration / TNF-α cytokine concentration / IL-12p70 cytokine concentration / IL-22 cytokine concentration / IFN-γ cytokine concentration: 10^−9M; for IL-12p70 cytokine concentration / IL-22 cytokine concentration: excluded from the final assessment
# Procedure, shortened: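 Primary T-cells from peripheral blood of healthy volunteers, or HaCaT cells, were activated with PMA/Ionomycin or IFN-γ for 48 h and treated with tripeptides. Supernatants were collected 48 h and 72 h after stimulation and cytokines (IL-1, IL-2, IL-6, IL-12p70, IL-17, IFN-γ, TNF-α) were measured by 13-plex FACS.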
# primary murine T-cells = assay: Cytokine secretion on protein level in activated primary murine T-cells (13-plex FACS / Luminex, supernatant); assay type: cell-based, C57BL/6 mice; details: 10^−9M
# Procedure, shortened: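 T-cells from secondary lymphatic organs of naïve C57BL/6 mice, stimulated with PMA/Ionomycin or IFN-γ; supernatant cytokines measured by 13-plex FACS 48 h and 72 h after stimulation. In another run, PMA/Ionomycin-stimulated cells received compounds at 10^−7, 10^−9 and 10^−11 M, with IFN-γ, IL-17 and IL-10 measured by Luminex.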
# primary human T-cells = assay: Cytokine secretion on protein level in activated primary human T-cells (13-plex FACS / Luminex, supernatant); assay type: cell-based; details: 10^−9M
# Procedure, shortened: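 First, T-cells are isolated from healthy donors' blood. Next, they and HaCaT keratinocytes are activated for 48 h with PMA/Ionomycin or IFN-γ in the presence of tripeptides. Finally, secreted cytokines are quantified in supernatants by 13-plex FACS at 48 and 72 h.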
# [2] = HaCaT stimulated with PMA/Ionomycin
# [3] = primary murine T-cells stimulated with IFN-γ
# [4] = primary murine T-cells stimulated with PBS
# [5] = primary murine T-cells stimulated with PMA/Ionomycin
# [6] = primary murine T-cells stimulated with PMA/Ionomycin, 1:10 dilution of the supernatants
# [7] = primary human T-cells stimulated with IFN-γ
# [8] = primary human T-cells stimulated with PBS
# [9] = primary human T-cells stimulated with PMA/Ionomycin
substance,measurement,setting,value
H-(L)-Lys-(D)-Pro-N^α-methyl-(L)-Thr-OH [Example 2],IL-1 cytokine concentration,[1]; HaCaT stimulated with IFN-γ,265.46 pg/mL
same,IL-2 cytokine concentration,[1]; HaCaT stimulated with IFN-γ,96.34 pg/mL
same,IL-4 cytokine concentration,[1]; HaCaT stimulated with IFN-γ,71.76 pg/mL
same,IL-5 cytokine concentration,[1]; HaCaT stimulated with IFN-γ,109.73 pg/mL
same,IL-6 cytokine concentration,[1]; HaCaT stimulated with IFN-γ,641.89 pg/mL
same,IL-9 cytokine concentration,[1]; HaCaT stimulated with IFN-γ,104.08 pg/mL
same,IL-10 cytokine concentration,[1]; HaCaT stimulated with IFN-γ,129.2 pg/mL
same,IL-13 cytokine concentration,[1]; HaCaT stimulated with IFN-γ,61.18 pg/mL
same,IL-17 cytokine concentration,[1]; HaCaT stimulated with IFN-γ,629.16 pg/mL
same,TNF-α cytokine concentration,[1]; HaCaT stimulated with IFN-γ,79.97 pg/mL
same,IL-12p70 cytokine concentration,[1]; HaCaT stimulated with IFN-γ,1904.09 pg/mL
same,IL-22 cytokine concentration,[1]; HaCaT stimulated with IFN-γ,0 pg/mL
same,IFN-γ cytokine concentration,[1]; HaCaT stimulated with PBS,397.45 pg/mL
same,IL-1 cytokine concentration,[1]; HaCaT stimulated with PBS,251.25 pg/mL
same,IL-2 cytokine concentration,[1]; HaCaT stimulated with PBS,177.85 pg/mL
same,IL-4 cytokine concentration,[1]; HaCaT stimulated with PBS,90.8 pg/mL
same,IL-5 cytokine concentration,[1]; HaCaT stimulated with PBS,189.12 pg/mL
same,IL-6 cytokine concentration,[1]; HaCaT stimulated with PBS,75.53 pg/mL
same,IL-9 cytokine concentration,[1]; HaCaT stimulated with PBS,139.65 pg/mL
same,IL-10 cytokine concentration,[1]; HaCaT stimulated with PBS,151.26 pg/mL
same,IL-13 cytokine concentration,[1]; HaCaT stimulated with PBS,69.36 pg/mL
same,IL-17 cytokine concentration,[1]; HaCaT stimulated with PBS,569.9 pg/mL
same,TNF-α cytokine concentration,[1]; HaCaT stimulated with PBS,84.84 pg/mL
same,IL-12p70 cytokine concentration,[1]; HaCaT stimulated with PBS,1864.02 pg/mL
same,IL-22 cytokine concentration,[1]; HaCaT stimulated with PBS,14446.9 pg/mL
same,IFN-γ cytokine concentration,[1]; [2],704.33 pg/mL
same,IL-1 cytokine concentration,[1]; [2],204.23 pg/mL
same,IL-2 cytokine concentration,[1]; [2],130.08 pg/mL
same,IL-4 cytokine concentration,[1]; [2],58.48 pg/mL
same,IL-5 cytokine concentration,[1]; [2],129.65 pg/mL
same,IL-6 cytokine concentration,[1]; [2],129.99 pg/mL
same,IL-9 cytokine concentration,[1]; [2],104.14 pg/mL
same,IL-10 cytokine concentration,[1]; [2],97.55 pg/mL
same,IL-13 cytokine concentration,[1]; [2],69.36 pg/mL
same,IL-17 cytokine concentration,[1]; [2],369.01 pg/mL
same,TNF-α cytokine concentration,[1]; [2],62.15 pg/mL
same,IL-12p70 cytokine concentration,[1]; [2],0 pg/mL
same,IL-22 cytokine concentration,[1]; [2],14806.4 pg/mL
same,secretion / expression of pro-inflammatory cytokines (supernatant),[1]; activated human keratinocytes,decreased secretion
same,IL-1 cytokine concentration,primary murine T-cells; [3],22.78 pg/mL
same,IL-2 cytokine concentration,primary murine T-cells; [3],0 pg/mL
same,IL-4 cytokine concentration,primary murine T-cells; [3],0 pg/mL
same,IL-5 cytokine concentration,primary murine T-cells; [3],72.11 pg/mL
same,IL-6 cytokine concentration,primary murine T-cells; [3],23.14 pg/mL
same,IL-10 cytokine concentration,primary murine T-cells; [3],72.95 pg/mL
same,IL-13 cytokine concentration,primary murine T-cells; [3],0 pg/mL
same,IL-17 cytokine concentration,primary murine T-cells; [3],0 pg/mL
same,IL-21 cytokine concentration,primary murine T-cells; [3],0 pg/mL
same,IL-22 cytokine concentration,primary murine T-cells; [3],8.52 pg/mL
same,IL-27 cytokine concentration,primary murine T-cells; [3],1234.48 pg/mL
same,TNF-α cytokine concentration,primary murine T-cells; [3],0 pg/mL
same,IFN-γ cytokine concentration,primary murine T-cells; [4],2375.02 pg/mL
same,IL-1 cytokine concentration,primary murine T-cells; [4],36.6 pg/mL
same,IL-2 cytokine concentration,primary murine T-cells; [4],138.15 pg/mL
same,IL-4 cytokine concentration,primary murine T-cells; [4],0 pg/mL
same,IL-5 cytokine concentration,primary murine T-cells; [4],45.71 pg/mL
same,IL-6 cytokine concentration,primary murine T-cells; [4],0 pg/mL
same,IL-10 cytokine concentration,primary murine T-cells; [4],0 pg/mL
same,IL-13 cytokine concentration,primary murine T-cells; [4],0 pg/mL
same,IL-17 cytokine concentration,primary murine T-cells; [4],0 pg/mL
same,IL-21 cytokine concentration,primary murine T-cells; [4],0 pg/mL
same,IL-22 cytokine concentration,primary murine T-cells; [4],0 pg/mL
same,IL-27 cytokine concentration,primary murine T-cells; [4],0 pg/mL
same,TNF-α cytokine concentration,primary murine T-cells; [4],0 pg/mL
same,IL-1 cytokine concentration,primary murine T-cells; [5],0 pg/mL
same,IL-4 cytokine concentration,primary murine T-cells; [5],129.47 pg/mL
same,IL-5 cytokine concentration,primary murine T-cells; [5],350.49 pg/mL
same,IL-6 cytokine concentration,primary murine T-cells; [5],338.28 pg/mL
same,IL-10 cytokine concentration,primary murine T-cells; [5],155.42 pg/mL
same,IL-13 cytokine concentration,primary murine T-cells; [5],4703.82 pg/mL
same,IL-17 cytokine concentration,primary murine T-cells; [5],649.14 pg/mL
same,IL-21 cytokine concentration,primary murine T-cells; [5],0 pg/mL
same,IL-22 cytokine concentration,primary murine T-cells; [5],670.15 pg/mL
same,IL-27 cytokine concentration,primary murine T-cells; [5],778.4 pg/mL
same,TNF-α cytokine concentration,primary murine T-cells; [5],628.15 pg/mL
same,IFN-γ* cytokine concentration,primary murine T-cells; [6],0 pg/mL
same,IL-2* cytokine concentration,primary murine T-cells; [6],744.58 pg/mL
same,IL-1 cytokine concentration,primary human T-cells; [7],314.88 pg/mL
same,IL-2 cytokine concentration,primary human T-cells; [7],740.3 pg/mL
same,IL-4 cytokine concentration,primary human T-cells; [7],116.26 pg/mL
same,IL-5 cytokine concentration,primary human T-cells; [7],177.72 pg/mL
same,IL-6 cytokine concentration,primary human T-cells; [7],97.68 pg/mL
same,IL-9 cytokine concentration,primary human T-cells; [7],106.37 pg/mL
same,IL-10 cytokine concentration,primary human T-cells; [7],146.79 pg/mL
same,IL-12p70 cytokine concentration,primary human T-cells; [7],804.93 pg/mL
same,IL-13 cytokine concentration,primary human T-cells; [7],97.39 pg/mL
same,IL-17 cytokine concentration,primary human T-cells; [7],168.9 pg/mL
same,IL-22 cytokine concentration,primary human T-cells; [7],21970.6 pg/mL
same,TNF-α cytokine concentration,primary human T-cells; [7],188.29 pg/mL
same,IFN-γ cytokine concentration,primary human T-cells; [8],0 pg/mL
same,IL-1 cytokine concentration,primary human T-cells; [8],305.62 pg/mL
same,IL-2 cytokine concentration,primary human T-cells; [8],985.16 pg/mL
same,IL-4 cytokine concentration,primary human T-cells; [8],151.33 pg/mL
same,IL-5 cytokine concentration,primary human T-cells; [8],310.87 pg/mL
same,IL-6 cytokine concentration,primary human T-cells; [8],84.38 pg/mL
same,IL-9 cytokine concentration,primary human T-cells; [8],116.55 pg/mL
same,IL-10 cytokine concentration,primary human T-cells; [8],253.29 pg/mL
same,IL-12p70 cytokine concentration,primary human T-cells; [8],226.23 pg/mL
same,IL-13 cytokine concentration,primary human T-cells; [8],90.3 pg/mL
same,IL-17 cytokine concentration,primary human T-cells; [8],238.4 pg/mL
same,IL-22 cytokine concentration,primary human T-cells; [8],2242.06 pg/mL
same,TNF-α cytokine concentration,primary human T-cells; [8],211.85 pg/mL
same,IFN-γ cytokine concentration,primary human T-cells; [9],2726.77 pg/mL
same,IL-1 cytokine concentration,primary human T-cells; [9],69689.2 pg/mL
same,IL-2 cytokine concentration,primary human T-cells; [9],12000 pg/mL
same,IL-4 cytokine concentration,primary human T-cells; [9],239.02 pg/mL
same,IL-5 cytokine concentration,primary human T-cells; [9],325.76 pg/mL
same,IL-6 cytokine concentration,primary human T-cells; [9],1533.99 pg/mL
same,IL-9 cytokine concentration,primary human T-cells; [9],142.93 pg/mL
same,IL-10 cytokine concentration,primary human T-cells; [9],3938.15 pg/mL
same,IL-12p70 cytokine concentration,primary human T-cells; [9],1413.17 pg/mL
same,IL-13 cytokine concentration,primary human T-cells; [9],760.63 pg/mL
same,IL-17 cytokine concentration,primary human T-cells; [9],3476.92 pg/mL
same,IL-22 cytokine concentration,primary human T-cells; [9],24128.2 pg/mL
same,TNF-α cytokine concentration,primary human T-cells; [9],3600 pg/mL
